This is an account of results in patent US5597798A, “Taxol and epidermal growth factor used to enhance treatment of ovarian cancer” (The Regents of the University of California, priority 1994, dated 1997).

One series has as its system 2008/C13*5 cells. The series is described as follows: Colonogenic assay, effect of TPA on DDP sensitivity of DDP-resistant cells. In kind it is cell-based, human. Conditions: TPA and DDP concurrently for 1 h. The source says: The following cell lines were used in these studies: 2008 human ovarian carcinoma (Disaia, et al., Am. J. Obstet. Gynecol. 114:978 (1972)), COLO 316 human ovarian carcinoma (Woods et al., Cancer Res. 39:4449 (1979)), a DDP resistant variant 2008/C13*, derived from the parent 2008 cell line (Andrews, et al., Cancer Res. 45:6250 (1985)), A549 non-small cell lung cancer (Lieber et al., Int. J. Cancer 17:62 (1976)), NCI-H520 squamous cell lung cancer (Brower et al., Cancer Res. 46: 798 (1986)), NCI-H596 adenosquamous lung cancer (Banks-Schlegel et al., Cancer Res. 45: 1187 (1985)), UMC 31 small cell lung cancer cells (Graziano et al., Genes, Chromosomes and Cancer 3: 283 (1991)), GLC4 small cell lung cancer cells (Zijlstra et al., Cancer Res. 47: 1780 (1987)), UMCC10b head and neck cancer cells (Krause et al., Arch. Otolayngol. 107: 703 (1981)), 5637 bladder cancer cells (Fogh et al., J. Natl. Cancer Inst. 58: 209 (1977)), MIA PaCa-2 pancreatic cancer cells (Yunis et al., Int. […]
Colony forming assays were used to assess the effect of each drug on the sensitivity of various tumor cell lines to cytotoxic agents (Andrews, et al., Chem.-Biol. Interact 65:51-58 (1988)). […] Colonies of over 60 cells were counted macroscopically.
The 2008/C13*5 cell line is 8-10-fold resistant to DDP. […] Drug cytotoxicity was determined by colonogenic assay on plastic dishes. […]

The subject of series [1] is 2008 cells. Kind of series: Cellular accumulation of [195mPt]DDP. In kind it is cell-based, human. Conditions: concurrent 60 min. The procedure:
Cell-associated ^195m Pt was determined by as a measure of DDP accumulation. For DDP accumulation studies, subconfluent monolayers were treated with 37° C. RPMI 1640 medium containing 20 μM [^195m Pt]-DDD. The dishes were immediately returned to the incubater. After 1 h incubation, the medium was aspirated, the cells were washed rapidly with 4° C. PBS 4 times. Two ml of 1N NaOH was added and the cells allowed to digest overnight. A forty μl aliquot was used for determination of protein content by the method of Bradford (Bradford, Anal. Biochem. 72:248-254 (1976)), and the remaining […] was counted in glass tubes on a Trak 1191 gamma counter (Tracer Analytic, EIK Grove Village, Ill.). Columns represent the mean values of 3 experiments performed with duplicate cultures. The bars represent the standard deviation.
Cultured 2008 cells were treated concurrently with [^195m Pt]DDP and TPA for 60 min. A vehicle control consisting of an appropriate dilution of acetone was run concurrently. […] Cells treated with medium alone contained 140±13 pmol/mg of protein, whereas those treated with the acetone control contained 141±7 pmol/mg of protein, and those treated with TPA contained 143±21 pmol/mg of protein.

The next series deals with cellular cAMP. The series is described as follows: Determination of cellular cAMP content. It is filed as cell-based.
Series [2] in a line: Colony formation, TPA sensitization to DDP with cycloheximide (CHM). To be noted: 2 μM DDP with 10^-7 M TPA 1 h. In kind it is cell-based.
In the next series the test system is human KB carcinoma cells. Conditions: TPA treatment; cited from earlier work.
The test system of series [3] is 2008 cells. The series is described as follows: Colony forming (colonogenic) assay, effect of TPA, phorbol and staurosporine on DDP sensitivity.

Regarding `CCCCCCCCCCCCCC(=O)O[C@@H]1[C@@H](C)[C@@]2(O)[C@@H](C=C(CO)C[C@]3(O)C(=O)C(C)=C[C@@H]23)[C@H]2C(C)(C)[C@]12OC(C)=O` [TPA], the “sensitization to DDP” value in the series on 2008/C13*5 cells is given as 2.6 fold. Further, the “effect of TPA on cellular accumulation of [195mPt]DDP” value with 2008 cells [1] is “neither the acetone nor the TPA produced any effect on cellular accumulation”. In addition, in the series with cellular cAMP (10 min treatment, means of 6 experiments), the “cAMP level, 10 min. mean” value is 2.7 pmol/mg protein. In the series on cellular cAMP (60 min), the “cAMP level, % of the untreated control” value turned out to be 38% and the “cAMP level, % of the vehicle control” value is 65%. For the same compound, the “cAMP level, 60 min. mean” value in the series with cellular cAMP (60 min treatment, means of 6 experiments) came out at 8.2 pmol/mg protein. Besides, in series [2] (absence of CHM), the “survival, % of control (S.D.)” value was found to be 33±5%. The “survival, % of controls (S.D.)” value in series [2] (presence of CHM 5 μg/ml) was 41±7%. In addition, the “decrease in sensitivity to etoposide and vincristine” value with human KB carcinoma cells was 50%. In addition, the “interaction between TPA and DDP, median effect analysis” value with 2008 cells [3] was “truly synergistic”. Further, the “loss of TPA sensitization” value with 2008 cells [3] (0.1 μM TPA 1 h, 2 μM DDP 1 h) is recorded as “largely disappeared by 7 h”. Further, the “survival, % of control” value in the series on 2008 cells [3] (2 μM DDP plus 0.1 μM TPA) is given as 38±16%. In addition, the “survival normalized to 2 μM DDP alone = 100%” value with 2008 cells [3] (2 μM DDP plus TPA, no staurosporine) was determined as 44%. Also, in the series with 2008 cells [3] (24-h exposure to 0.1 μM TPA followed by 1-h exposure to DDP), the “DDP sensitization after TPA pretreatment” value is reported as “a similar degree of sensitization was observed”. Besides, in the series on 2008 cells [3] (TPA and DDP concurrently for 1 h), the “increase in DDP sensitivity” value is 2.5 fold. For the same compound, in the series on 2008 cells [3] (concentrations), the “toxicity of TPA by itself” value is “did not cause any toxicity by itself”. Further, the “DDP sensitization under continuous exposure” value with 2008 cells [3] (continuous exposure to both TPA and DDP for the full period of colony formation) was “no change in DDP sensitivity was evident”.
